Laboratory results reported in patent publication US8920851B2, “Treatment of neurodegenerative diseases” (Velacor Therapeutics Pty Ltd, priority 2006, dated 2014).

Experiments:
[1] = target: T1, human PP2A A-C heterodimer (Homo sapiens, UniProt P67775); type: biochemical
T1 construct: purified PP2A A-C dimer purified from human red blood cells; purchased Upstate 14-111 (lot #28002); host or cells: human red blood cells (native purification)
Protocol: In initial assays a chemical substrate of phosphatase enzymatic action, para-nitrophennylphosphate (pNPP) was used, which following hydrolysis of the phosphate moiety generates para-nitrophenol, an intensely yellow chromogen which is soluble under alkaline conditions. […] Absorbance of each sample was measured in duplicate at 405 nm with 590 nm as a reference. PP2A activity was calculated using the following equation: activity=(sample vol in liters)×A405/1.78×104M^−1 cm^−1 (extinction coefficient)×0.25 cm×15 minutes×0.05 U enzyme Data is presented as mean relative phosphatase activity ±SEM from at least three independent experiments.
Para-nitrophennylphosphate (PNPP) is a chemical substrate of phosphatase enzymes, which following hydrolysis of the phosphate moiety generates para-nitrophenol, an intensely yellow chromogen, soluble under alkaline conditions. In assays measuring relative phosphatase activity, 0.05 U of purified PP2A was mixed with 5 μl of 40 mM NiCl2 and 5 μl of BSA solution (5 mg/ml) in a microcentrifuge tube. Various treatments were added as indicated, and the volume adjusted to 80 μl with pNPP assay buffer. Samples were pre-incubated at 37° C. for 15 min. pNPP substrate was freshly prepared before each assay by dissolving 1.5 mg/ml pNPP in 50 mM Tris-HCl, pH 7.0. To start the phosphatase reaction, 120 μl of pNPP substrate was added, and samples incubated for a further 15 min at 37° C. Absorbance of each sample was measured in duplicate at 405 nm with 590 nm as a reference. PP2A activity was calculated using the following equation: activity=(Sample volume in liters)×A405/1.78×10^4M^−1cm^−1 (Extinction coefficient)×0.25 cm×15 min×0.05 U enzyme.

p70S6K = type: cell-based, human; settings: PC3 cells; LY294002 50 μM 1 hour, sodium selenate 500 μM 1 hour, okadaic acid 500 nM
Protocol: 5×10^5 PC3 prostate carcinoma cells were plated per well of a 6-well plate, allowed to attach for 8 hours, then serum starved overnight. […] Equal amounts of whole cell lysates (75 μg) were resolved by SDS-PAGE, and the level of p70S6K phosphorylation determined by immunoblot analysis with an antibody that specifically recognizes the p70S6K protein when phosphorylated on Thr389. Comparison is made with the protein loading control β tubulin.

GSK-3β = GSK-3β Ser9 phosphorylation by immunoblot in PC3 cells; type: cell-based, human
Source text: The metabolic effects of insulin on glycogen synthesis are mediated by glycogen synthase kinase-3 (GSK-3), a direct downstream substrate of Akt. GSK-3 is a ubiquitously expressed serine/threonine kinase that phosphorylates and inactivates glycogen synthase. In response to activation of the insulin receptor, Akt phosphorylates and inactivates the repressor GSK-3, thereby stimulating glycogen synthesis [Cross et al., 1995]. […] Resolved whole cell lysates were subjected to immunoblot analysis with an antibody that specifically recognizes GSK-3β only when phosphorylated at Ser9, a site critical for its kinase activity, and comparison made with the cytoskeletal protein β-tubulin as a loading control.

[2] = target: T2, PP2A catalytic subunit complexed with Akt (Homo sapiens, UniProt P67775); test: Co-immunoprecipitation of PP2A catalytic subunit with Akt from PC3 cells; type: cell-based; settings: 500 μM, 1.5 h, densitometry
T2 construct: Total Akt was immunoprecipitated from 400 μg of each whole cell lysate using a monoclonal anti-Akt antibody; endogenous in cells; host or cells: PC3 prostate carcinoma cells
T2 sequence (P67775 whole entry): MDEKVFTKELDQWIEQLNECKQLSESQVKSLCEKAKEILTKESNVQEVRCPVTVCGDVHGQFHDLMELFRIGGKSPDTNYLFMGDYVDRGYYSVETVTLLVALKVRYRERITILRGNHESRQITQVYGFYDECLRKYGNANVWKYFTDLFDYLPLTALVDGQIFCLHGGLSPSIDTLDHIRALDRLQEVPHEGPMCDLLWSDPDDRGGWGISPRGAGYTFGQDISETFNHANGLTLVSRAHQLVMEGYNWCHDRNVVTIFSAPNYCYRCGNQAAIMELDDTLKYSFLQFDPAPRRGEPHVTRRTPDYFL
T2 sequence (P30153 2-589 partner limits assumed): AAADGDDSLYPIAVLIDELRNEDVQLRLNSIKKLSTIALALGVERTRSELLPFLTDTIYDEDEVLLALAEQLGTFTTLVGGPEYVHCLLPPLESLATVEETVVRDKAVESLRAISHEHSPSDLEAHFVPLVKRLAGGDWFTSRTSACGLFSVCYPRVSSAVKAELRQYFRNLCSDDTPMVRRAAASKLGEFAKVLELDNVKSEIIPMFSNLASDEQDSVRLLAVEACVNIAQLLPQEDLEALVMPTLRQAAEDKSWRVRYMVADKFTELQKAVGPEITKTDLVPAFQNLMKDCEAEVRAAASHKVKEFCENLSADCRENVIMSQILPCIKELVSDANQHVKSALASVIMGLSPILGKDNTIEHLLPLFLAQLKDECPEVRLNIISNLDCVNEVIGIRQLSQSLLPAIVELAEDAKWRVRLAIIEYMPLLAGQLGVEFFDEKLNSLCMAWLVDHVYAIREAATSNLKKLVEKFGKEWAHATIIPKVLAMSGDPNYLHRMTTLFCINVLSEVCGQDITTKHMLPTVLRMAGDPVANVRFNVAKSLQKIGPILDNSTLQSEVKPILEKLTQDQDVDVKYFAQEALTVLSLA
Protocol: 1×10^6 PC3 prostate carcinoma cells were plated onto 6 cm dishes, allowed attach for 8 h, and then serum starved overnight. […] Total Akt was immunoprecipitated from 400 μg of each whole cell lysate using a monoclonal anti-Akt antibody, and captured with protein A-sepharose beads. […] Following washing to reduce non-specific binding, the beads were boiled for 5 min in 3× SDS protein loading buffer, centrifuged at high speed and the supernatant resolved by SDS-PAGE. The level of PP2A binding was determined by immunoblot analysis with an antibody that specifically recognizes the catalytic subunit of the phosphatase, and comparison made with the amount of Akt pulled down and the concentration of precipitating antibody (IgG). […] To quantify this increase in complex formation, representative immunoblots from three independent experiments were digitalized, subjected to densitometric analysis, and normalized to the control for each experiment. The mean ratio of PP2A catalytic subunit to total immunoprecipitated Akt protein ±SEM was then determined.
100-600 μg of whole cell lysate was incubated with various antibodies at a 1:100 dilution in microfuge tubes on a rotating wheel for 1-2 h at RT or 16 h at 4° C. as indicated. Following brief centrifugation, 30-40 μl of pre-washed 50% Protein-A Sepharose Fast Flow beads (Sigma #9424) was added to each tube and rotated at 4° C. for 1 h at RT or 4° C. […]

PHF Tau = settings: Balb/C Nu Nu male mice, single subcutaneous injection 300 μg per 200 μl PBS, 2 and 6 hours
Protocol: Lysates preparation and Immunoblotting: Cells were washed twice in cold PBS and were lysed in 150 μl of cold RIPA buffer (containing 10% glycerol, 20 mM Tris, 137 mM NaCl, 0.1% SDS, 0.05% IGEPAL, 1% Triton X-100, 2 mM EDTA, 10% NaV, 2% NaF and 4× protease inhibitor), similarly, brain tissues were homogenised in dry ice using mortar and pestle, and lysed in 150 μl RIPA buffer. Samples were incubated on ice for 30 minutes, followed by centrifugation at 13000 rpm/ 10 minutes/ 4° C. Supernantant was collected and protein estimation was calculated for each sample by using BCA reagent (Sigma). Equal amounts of protein were loaded into each lane of a 10% SDS-polyacrylamide gel. The proteins were transferred onto PVDF (Millipore) membranes and were blocked with 5% skim milk blotto for 2 hours. After blocking the membrane, primary antibodies: either anti-human PHF-Tau (AT100 at 1:200, AT180 at 1:1000, and AT270 at 1:2500) or anti-human Tau (HT-7 at 1:1000) were incubated overnight at 4° C. in 5% skim milk blotto. Prior to secondary antibody incubation, membranes were rinsed 3× followed by 3×5 minutes washed in Tris-Buffered Saline with 0.01% Tween at room temperature. […] Membranes were washed as described above and were detected by using Amersham ECL western blotting detection reagent (Amersham Bioscience, Buckinghamshire, UK). […]

[3] = tested on: TAU441 transgenic (Tg) TMHT mice
Source text: This was done every Monday, Wednesday and Friday, and the water was weighed on exchange to measure consumption.

[4] = tested on: PC3 prostate carcinoma cells; test: Intracellular redox state assay (DCFDA, flow cytometry); settings: 1 h, sodium selenate 500 μM, NAC 1 mM
Protocol: 1×10^6 PC3 prostate carcinoma cells were plated in 60 mm dishes, allowed to attach for 8 h, and serum starved overnight. Cells were incubated with DCFDA 5 μM for 15 min prior to treatment.
The proportion of fluorescent cells was then determined by flow cytometry.
Intracellular redox state was determined using 2′,7′-dichlorodihydrofluorescein diacetate (DCFDA). […] Cells were equilibrated with 5 μM of DCFDA for 15 min prior to various treatments. Adherent cells were then harvested, washed twice with PBS and the proportion of fluorescent cells determined immediately by flow cytometry.

T1 sequence (P67775 whole entry): as the sequence (P67775 whole entry) above
T1 sequence (P30153 2-589 partner limits assumed): as the sequence (P30153 2-589 partner limits assumed) above

`O=[Se](=O)(O)O` [sodium selenate] was tested, and the “PP2A phosphatase activity, pNPP as substrate” value ([1]; 5 mM of each selenium compound) was “clear boost in phosphatase activity”, the “PP2A phosphatase activity (pNPP)” value ([1]; 0.05 U PP2A dimer, 30 min at 37° C., sodium selenate 5 mM, okadaic acid 500 nM) was “nearly tripled” and the “p70S6K phosphorylation on Thr389” value (p70S6K) was “unaffected”. For the same compound, the “GSK-3β phosphorylation at Ser9, time course” value (GSK-3β; 500 μM, 0 to 6 h) was “marked reduction in phosphorylation, which was maximal at 1 h and 3 h, and returned towards basal levels at the 6 h timepoint”, the “reduction of GSK-3β phosphorylation levels” value (GSK-3β; densitometry, sodium selenate 500 μM 3 h, LY294002 50 μM 1 h) was “over 20%” and the “increase in the binding of PP2A catalytic subunit to Akt protein” value [2] was “approximately 50%”. For the same compound, the “PHF Tau signal in brain lysate, clone AT100 (60 kDa)” value (PHF Tau) was “PHF Tau signal appeared to be reduced”, the “PHF Tau signal in brain lysate, clone AT180 (60 kDa)” value (PHF Tau) was “PHF Tau signal clearly reduced” and the “Open Field activity parameters (activity, hyperactivity, rearing behaviour)” value ([3]; 1.2 mg per 100 mL drinking water, 12 weeks) was “uninfluenced”. The “finding the platform in the Morris Water Maze versus three months younger baseline group” value ([3]; day 1) was “faster”, the “finding the platform in the Morris Water Maze versus vehicle” value ([3]; day 1, 2 and 3, p≦0.01) was “faster” and the “thigmotaxis: abidance in the centre of the Open Field box, turn 1” value ([3]; drinking water, 1.5 months after treatment start, versus vehicle, T-test p=0.019) was “significant higher abidance in the centre of the Open Field box”. For the same compound, the “curiosity behaviour (Nose poke)” value ([3]; drinking water, 12 weeks) was “remained unchanged”, the “motor performance (Rota Rod)” value ([3]; drinking water, 12 weeks) was “remained unchanged” and the “negative side effects and premature deaths” value ([3]; drinking water, 12 weeks) was “did not lead to any negative side effects or caused any premature deaths”. For the same compound, the “thigmotactic behaviour, turn 2” value ([3]; drinking water, end of treatment) was “normalized to the level of the vehicle controls” and the “basal proportion of fluorescent cells (ROS)” value [4] was “had no effect on the basal proportion of fluorescent cells”.
